Data on 22 compounds can be found in patent publication US20220071971A1, “MACROCYCLIC COMPOUNDS AND THEIR USE IN THE TREATMENT OF DISEASE” (NOVARTIS AG, priority 2018, published 2022).

This assay has as its target T1, delF508-CFTR (Homo sapiens, UniProt P13569, DEL508-508).
T1 construct: expressed in transfected cells
Briefly: Measurement of delF508-CFTR-HRP surface expression in CFBE41o- cells. The assay is classed as cell-based. The following applies: for Emax: CFBE41o-, efficacy relative to reference compound 3-(6-(1-(2,2-difluorobenzo[d][1,3]dioxol-5-yl)cyclopropane-1-carboxamido)-3-methylpyridin-2-yl)benzoic acid, read-out: DelF508-CFTR-HRP Amax %; for EC50: HRP-tagged delF508-CFTR surface expression, CFBE41o- cells, 24 h with compound, 10-point curve, highest concentration 10 μM. An excerpt:
Measurement of deIF508-CFTR-HRP Surface Expression in CFBE41o-Cells
This assay quantifies the cell surface expressions of the mutant CFTR channel using an extracellular HRP tag.
A cellular assay was developed to measure surface expression of horseradish peroxidase (HRP) tagged delF508-CFTR in the human bronchial epithelial immortalized CFBE41o-cell line (Phuan, P. W., et al, (2014) Molecular Pharmacology 86:42-51). Specifically, the HRP sequence was inserted into the fourth extracellular loop of delF508-CFTR and stably expressed in CFBE41o-cells. Cells were seeded in 384 well plate at a density of 5000 cells/well and incubated at 37° C. for 12 to 24 hours in medium (Gibco MEM #11095, 10% FBS, 10 mM HEPES, […], 200 μg/mL G418, 3 μg/mL Puromycin). The delF508-CFTR-HRP expression was induced with 500 ng/mL doxycycline (Sigma D-9891, dissolved in H2O and sterile filtered) in medium and the cells were incubated at 37° C. for 48 h. Old medium was removed and fresh medium was added containing 500 ng/mL doxycycline and unknown test compound at required test concentration in DMSO, not exceeding 0.5% final DMSO concentration. The highest concentration tested was 10 μM with a 10-point concentration response curve using a 3-fold dilution. After addition of compounds, the cells were incubated for 24 h at 37° C. On the final day, cells were washed four times in PBS containing 1 mM MgCl2 and 0.1 mM CaCl2. HRP-Substrate (SuperSignal ELISA Pico, Fisher #37069) 20 μl/well was added and the luminescence signal was determined (Viewlux, Perkin Elmer). Light was emitted upon addition of exogenous HRP-Substrate only when delF508-CFTR-HRP reached the cell surface and the HRP tag was accessible to the HRP-Substrate (note: HRP-Substrate cannot cross the lipid bilayer to reach delF508-CFTR-HRP misfolded within the cell).
The median activity for the lowest concentration of the compounds on each assay plate was calculated and this value was used to normalize the signal for each well on the respective plate. Three replicates at each concentrations for every compound were run to determine one EC50. The median value was determined and used to calculate compound activities as described below. Effective half maximal values (EC50) were calculated for each compound by performing logistic regression on measured dose-response data points using the equation: […]
where “Y” is the observed activity, “Bottom” is the lowest observed value, “Top” is the highest observed value, and the “Hill coefficient” gives the largest absolute value of the slope. The curve fitting is carried out by a curve fitting program implemented at GNF using Matlab (Mathworks).
The dose response curves also were used to calculate Fold Change (FC) using the equation: […]
Compound efficacy relative to the reference compound 3-(6-(1-(2,2-difluorobenzo[d][1,3]dioxol-5-yl)cyclopropane-1-carboxamido)-3-methylpyridin-2-yl)benzoic acid was determined using the following formula: […]

T1 sequence (P13569 with tags, fused parts or gaps DEL508-508): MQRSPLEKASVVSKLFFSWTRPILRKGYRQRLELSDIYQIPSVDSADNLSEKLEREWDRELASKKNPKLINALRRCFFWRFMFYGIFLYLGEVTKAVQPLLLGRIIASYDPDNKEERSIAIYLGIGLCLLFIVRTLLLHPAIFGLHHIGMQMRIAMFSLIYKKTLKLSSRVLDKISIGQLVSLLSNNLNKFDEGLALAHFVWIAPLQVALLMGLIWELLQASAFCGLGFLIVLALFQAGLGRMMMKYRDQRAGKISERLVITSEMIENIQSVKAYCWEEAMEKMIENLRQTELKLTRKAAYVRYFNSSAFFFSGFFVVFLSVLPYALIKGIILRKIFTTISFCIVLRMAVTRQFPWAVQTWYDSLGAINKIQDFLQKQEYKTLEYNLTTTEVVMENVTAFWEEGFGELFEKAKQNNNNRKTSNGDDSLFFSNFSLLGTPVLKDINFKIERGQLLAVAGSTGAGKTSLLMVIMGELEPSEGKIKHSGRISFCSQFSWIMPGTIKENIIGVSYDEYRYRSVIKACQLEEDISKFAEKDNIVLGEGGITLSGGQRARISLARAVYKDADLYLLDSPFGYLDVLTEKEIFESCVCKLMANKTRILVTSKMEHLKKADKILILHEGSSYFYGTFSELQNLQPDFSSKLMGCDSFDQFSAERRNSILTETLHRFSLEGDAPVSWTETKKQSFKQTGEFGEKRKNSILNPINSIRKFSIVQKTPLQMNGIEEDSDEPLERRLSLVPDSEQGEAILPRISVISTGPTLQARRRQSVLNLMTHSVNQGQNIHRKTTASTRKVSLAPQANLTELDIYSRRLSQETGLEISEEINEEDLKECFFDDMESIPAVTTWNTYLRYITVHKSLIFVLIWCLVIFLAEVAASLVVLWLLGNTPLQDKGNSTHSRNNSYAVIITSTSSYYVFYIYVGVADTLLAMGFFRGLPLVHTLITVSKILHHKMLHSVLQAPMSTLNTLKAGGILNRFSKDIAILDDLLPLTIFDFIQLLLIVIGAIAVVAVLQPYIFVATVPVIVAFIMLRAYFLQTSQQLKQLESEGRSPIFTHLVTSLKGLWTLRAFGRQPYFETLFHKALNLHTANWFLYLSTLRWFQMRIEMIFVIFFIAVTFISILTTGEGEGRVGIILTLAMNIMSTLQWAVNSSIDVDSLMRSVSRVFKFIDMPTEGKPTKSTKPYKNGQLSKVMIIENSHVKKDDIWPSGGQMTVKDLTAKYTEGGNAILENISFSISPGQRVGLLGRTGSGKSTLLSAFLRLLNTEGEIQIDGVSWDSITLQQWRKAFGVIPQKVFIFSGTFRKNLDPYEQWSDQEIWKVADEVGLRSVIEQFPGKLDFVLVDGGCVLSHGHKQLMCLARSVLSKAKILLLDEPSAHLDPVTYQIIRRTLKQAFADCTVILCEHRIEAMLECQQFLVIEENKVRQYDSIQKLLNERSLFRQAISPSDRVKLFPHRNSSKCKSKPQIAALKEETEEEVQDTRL

What is called EC50 is the midpoint of the concentration-response curve. On to `O=S1(=O)Nc2ccc(C(F)(F)F)c(n2)-c2cccnc2NCCCCNc2cccc1n2` [Compound 5, 2^3-(trifluoromethyl)-4-thia-3,6,11-triaza-1(3,2),2,5(2,6)-tripyridinacycloundecaphane 4,4-dioxide], for which the Emax turned out to be 159% and the EC50 stood at 1.62 µM. In the case of `O=S1(=O)Nc2ccc(C(F)(F)F)c(n2)-c2ccccc2CCCCCCCN(CCCCO)c2cccc1n2` [Compound 40, 6-(4-hydroxybutyl)-2^3-(trifluoromethyl)-4-thia-3,6-diaza-2,5(2,6)-dipyridina-1(1,2)-benzenacyclotridecaphane 4,4-dioxide], the EC50 was 0.22 µM. With `O=S1(=O)Nc2ccc(C(F)(F)F)c(n2)-c2cccnc2O[C@H]2CCC[C@H](CCC2)Oc2cccc1n2` [Compound 104, (4^1s,4^5s)-1^3-(trifluoromethyl)-3,5-dioxa-7-thia-8-aza-1,6(2,6),2(3,2)-tripyridina-4(1,5)-cyclooctanacyclooctaphane 7,7-dioxide], the Emax amounted to 205% and the EC50 came to 0.226 µM. On the same counts, the results for `O=C(O)CCN1CCCCc2ccccc2-c2nc(ccc2C(F)(F)F)NS(=O)(=O)c2cccc1n2` [Compound 87, 3-(4,4-dioxido-2^3-(trifluoromethyl)-4-thia-3,6-diaza-2,5(2,6)-dipyridina-1(1,2)-benzenacyclodecaphane-6-yl)propanoic acid] are 306% and 1.42 µM. For `O=S1(=O)Nc2ccc(C(F)(F)F)c(n2)-c2ccccc2CCCCCN(CCCCO)c2cccc1n2` [Compound 25, 6-(4-hydroxybutyl)-2^3-(trifluoromethyl)-4-thia-3,6-diaza-2,5(2,6)-dipyridina-1(1,2)-benzenacycloundecaphane 4,4-dioxide] the same measures were 932% and 0.267 µM. Take `COC(=O)CN1CCCCCCc2ccccc2-c2nc(ccc2C(F)(F)F)NS(=O)(=O)c2cccc1n2` [Compound 61, methyl 2-(4,4-dioxido-2^3-(trifluoromethyl)-4-thia-3,6-diaza-2,5(2,6)-dipyridina-1(1,2)-benzenacyclododecaphane-6-yl)acetate]: the EC50 worked out at 0.368 µM. In the case of `O=C(O)CCN1CCCCCCc2ccccc2-c2nc(ccc2C(F)(F)F)NS(=O)(=O)c2cccc1n2` [Compound 84, 3-(4,4-dioxido-2^3-(trifluoromethyl)-4-thia-3,6-diaza-2,5(2,6)-dipyridina-1(1,2)-benzenacyclododecaphane-6-yl)propanoic acid], the EC50 was 1.04 µM.

Turning to `Cc1ccc2nc1-c1ccccc1CCCCCN(CCCC(=O)O)c1cccc(n1)S(=O)(=O)N2` [Compound 72, 4-(2^3-methyl-4,4-dioxido-4-thia-3,6-diaza-2,5(2,6)-dipyridina-1(1,2)-benzenacycloundecaphane-6-yl)butanoic acid], the Emax amounted to 396% and the 50% effective concentration (EC50) came out at 2.43 µM.

For the compound `O=C(O)CCCN1CCCCCCc2ccc(F)cc2-c2nc(ccc2C(F)(F)F)NS(=O)(=O)c2cccc1n2` [Compound 68, 4-(1^5-fluoro-4,4-dioxido-2^3-(trifluoromethyl)-4-thia-3,6-diaza-2,5(2,6)-dipyridina-1(1,2)-benzenacyclododecaphane-6-yl)butanoic acid], the EC50 was determined as 0.418 µM. Take `O=C1C2CCCCC2C(=O)N1CCCN1CCCCCc2ccccc2-c2nc(ccc2C(F)(F)F)NS(=O)(=O)c2cccc1n2` (stereo not drawn) [Compound 134, 2-(3-(4,4-dioxido-2^3-(trifluoromethyl)-4-thia-3,6-diaza-2,5(2,6)-dipyridina-1(1,2)-benzenacycloundecaphane-6-yl)propyl)hexahydro-1H-isoindole-1,3(2H)-dione]: the Emax was 410% and the EC50 was 0.608 µM.

Take `O=S1(=O)Nc2ccc(C(F)(F)F)c(n2)-c2ccccc2OCCCCN(CCO)c2cccc1n2` [Compound 2, 6-(2-hydroxyethyl)-2^3-(trifluoromethyl)-11-oxa-4-thia-3,6-diaza-2,5(2,6)-dipyridina-1(1,2)-benzenacycloundecaphane 4,4-dioxide]: the Emax was 610% and the EC50 came to 0.606 µM. With `O=C(O)CCCN1CCCCCc2ccc(F)cc2-c2nc(ccc2C(F)(F)F)NS(=O)(=O)c2cccc1n2` [Compound 86, 4-(1^5-fluoro-4,4-dioxido-2^3-(trifluoromethyl)-4-thia-3,6-diaza-2,5(2,6)-dipyridina-1(1,2)-benzenacycloundecaphane-6-yl)butanoic acid], the EC50 amounted to 0.293 µM. In the case of `O=S1(=O)Nc2ccc(C(F)(F)F)c(n2)-c2ccccc2CCC(O)CNc2cccc1n2` (stereo not drawn) [Compound 33, 8-hydroxy-2^3-(trifluoromethyl)-4-thia-3,6-diaza-2,5(2,6)-dipyridina-1(1,2)-benzenacyclodecaphane 4,4-dioxide], the Emax was found to be 119% and the EC50 worked out at 3.3 µM. On the same counts, the results for `O=C(O)CCCN1CCCCc2ccccc2-c2nc(ccc2Cl)NS(=O)(=O)c2cccc1n2` [Compound 91, 4-(2^3-chloro-4,4-dioxido-4-thia-3,6-diaza-2,5(2,6)-dipyridina-1(1,2)-benzenacyclodecaphane-6-yl)butanoic acid] are 721% and 2.76 µM. On the same counts, the results for `CN1CCCCCCc2ccccc2-c2nc(ccc2C(F)(F)F)NS(=O)(=O)c2cccc1n2` [Compound 35, 6-methyl-2^3-(trifluoromethyl)-4-thia-3,6-diaza-2,5(2,6)-dipyridina-1(1,2)-benzenacyclododecaphane 4,4-dioxide] are 715% and 0.331 µM. Regarding `O=C(O)CCCCN1CCCCCc2ccccc2-c2nc(ccc2C(F)(F)F)NS(=O)(=O)c2cccc1n2` [Compound 77, 5-(4,4-dioxido-2^3-(trifluoromethyl)-4-thia-3,6-diaza-2,5(2,6)-dipyridina-1(1,2)-benzenacycloundecaphane-6-yl)pentanoic acid], the EC50 is 0.492 µM.

Consider `O=C(O)CC[C@H]1CCCCc2ccccc2-c2nc(ccc2C(F)(F)F)NS(=O)(=O)c2cccc(n2)N1` [Compound 135, (R)-3-(4,4-dioxido-2^3-(trifluoromethyl)-4-thia-3,6-diaza-2,5(2,6)-dipyridina-1(1,2)-benzenacycloundecaphane-7-yl)propanoic acid], for which the Emax is 651% and the EC50 came to 0.154 µM.

As for `O=S1(=O)Nc2ccc(C(F)(F)F)c(n2)-c2ccccc2CCCCCCCN(CCCCCO)c2cccc1n2` [Compound 41, 6-(5-hydroxypentyl)-2^3-(trifluoromethyl)-4-thia-3,6-diaza-2,5(2,6)-dipyridina-1(1,2)-benzenacyclotridecaphane 4,4-dioxide], the EC50 came to 0.187 µM. With `O=C1c2ccccc2C(=O)N1CCCN1CCCCCc2ccccc2-c2nc(ccc2C(F)(F)F)NS(=O)(=O)c2cccc1n2` [Compound 133, 2-(3-(4,4-dioxido-2^3-(trifluoromethyl)-4-thia-3,6-diaza-2,5(2,6)-dipyridina-1(1,2)-benzenacycloundecaphane-6-yl)propyl)isoindoline-1,3-dione], the Emax was 569% and the EC50 worked out at 0.457 µM. Consider `Cc1ccnc2c1-c1nc(ccc1Cl)NS(=O)(=O)c1cccc(n1)NCCCCCN2` [Compound 106, 2^3-chloro-1^4-methyl-4-thia-3,6,12-triaza-1(3,2),2,5(2,6)-tripyridinacyclododecaphane 4,4-dioxide], for which the Emax was 287% and the concentration for a half-maximal effect (EC50) is 1.41 µM. With `O=C(O)CCCN1CCCCCCCCc2ccccc2-c2nc(ccc2C(F)(F)F)NS(=O)(=O)c2cccc1n2` [Compound 71, 4-(4,4-dioxido-2^3-(trifluoromethyl)-4-thia-3,6-diaza-2,5(2,6)-dipyridina-1(1,2)-benzenacyclotetradecaphane-6-yl)butanoic acid], the EC50 amounted to 0.291 µM. Turning to `O=S1(=O)Nc2ccc(C(F)(F)F)c(n2)-c2cccnc2OCCCCCNc2cccc1n2` [Compound 108, 2^3-(trifluoromethyl)-1^2-oxa-4-thia-3,6-diaza-1(3,2),2,5(2,6)-tripyridinacyclododecaphane 4,4-dioxide], the Emax worked out at 443% and the EC50 came to 1.27 µM.
